Legend:
Format in all cases: physicochemical
[1] = pH series with disodium EDTA: aqueous-ethanolic solutions stored in the dark for 28 days, chromametric b* values; conditions: after 28 days
Text: The amount of 4-(1-phenylethyl)-1,3-dihydroxybenzene (CARN: 85-27-8; formula (IA)) was again in each case 0.5 percent by weight. The samples were likewise stored in the dark at room temperature for 28 days.

[2] = pH series: aqueous-ethanolic solutions stored in the dark for 28 days, chromametric b* values; conditions: after 28 days, without disodium EDTA
Description: In order to examine to what extent the degradation and the associated yellow to brown discoloration of 4-(1-phenylethyl)-1,3-dihydroxybenzene (CARN: 85-27-8; formula (IA)) in cosmetic and pharmaceutical formulations is also influenced by the pH value of the preparation, serial pH experiments were conducted, by dissolving 4-(1-phenylethyl)-1,3-dihydroxybenzene (CARN: 85-27-8; formula (IA)) in aqueous/ethanolic solutions which had been adjusted to different pH values (pH 4, 5, 7 and 9, Table 2) using buffer solutions. The amount of 4-(1-phenylethyl)-1,3-dihydroxybenzene (CARN: 85-27-8; formula (IA)) was in each case 0.5 percent by weight. All of the samples were stored in the dark for 28 days at room temperature. In order to measure any colour changes occurring, all samples were subjected to chromametric determination, both at the beginning of the experiment and at the end of a storage time of 28 days, of the b* values, which represent a measure of the shift in the blue-yellow axis and therefore give a direct indication of any yellow discoloration occurring.

[3] = Irradiation (24 h UV test, Ultra-Vitalux W300) of oil phase solutions, chromametric b* values; conditions: for b* value: after irradiation
Description: In order to examine to what extent the stability of the compound of the formula (IA) can be increased by predissolution in an oil phase to which an oil-soluble photoprotective filter of the formula (II) is added, irradiation experiments were conducted. The oil phase used was 2-ethylhexyl isononanoate (INCI: Ethylhexyl isononanoate). The amount of 4-(1-phenylethyl)-1,3-dihydroxybenzene (formula (IA) was in this case in a range from 10% to 20% by weight, based on the amount of oil phase. The amount of the photoprotective filter added for colour stabilization, 2-hydroxy-4-methoxybenzophenone (INCI: Benzophenone-3, formula (IIC)), was in each case 1% by weight. In order to examine to what extent the addition of a photoprotective filter of the formula (II) is advantageous, all of the samples were irradiated for 24 hours with light (light source: Ultra-Vitalux W300). For the measurement of any colour changes that occurred, all of the samples were subjected to chromametry both before and after irradiation to determine the b* values, which represent a measure of the shift in the blue-yellow axis and so give a direct indication of a yellow discoloration occurring.

b* value ([1]; pH 4, 0.5% solution): 1.5
b* value ([1]; pH 5, 0.5% solution): 3.6
b* value ([1]; pH 7, 0.5% solution): 14.8
b* value ([1]; pH 9, 0.5% solution): 40.2
b* value ([2]; pH 4, 0.5% solution): 2.0
b* value ([2]; pH 5, 0.5% solution): 4.6
b* value ([2]; pH 7, 0.5% solution): 19.4
b* value ([2]; pH 9, 0.5% solution): 55.3
b* value ([3]; reference specimen not stabilized with benzophenone-3): 34.0
b* value ([3]; solution with 10 percent by weight, plus 1 percent benzophenone-3): 10.3
b* value ([3]; solution with 15 percent by weight, plus 1 percent benzophenone-3): 15.5
b* value ([3]; solution with 20 percent by weight, plus 1 percent benzophenone-3): 10.6
stability of solutions on irradiation with light ([3]; light source Ultra-Vitalux W300, yellowish to brownish discoloration): a certain instability
Structure (SMILES): CC(c1ccccc1)c1ccc(O)cc1O (stereo not shown) [4-(1-phenylethyl)-1,3-dihydroxybenzene]

Reference: patent publication US20090130035A1, “STABILIZED PREPARATIONS COMPRISING PHENOLIC COMPOUNDS AND BENZOPHENONES” (SYMRISE GmbH & Co. KG, priority 2006, published 2009)
